# Experimental data as given in US10251863B2, “Parasiticidal compositions comprising indole derivatives, methods and uses thereof” (MERIAL, INC., priority 2014, dated 2019).
# System: adult F. hepatica
# Assay: in vitro test on adult F. hepatica (viability scale)
# Assay type: cell-based
# Conditions: Fasciola hepatica, 72 h, read-out: Effective in vitro concentration
# Experimental: Representative compounds of formula (I) were tested in vitro against F. hepatica as follows. Adult F. hepatica (fluke) were collected from infected bovine livers obtained from a local abattoir (Basel, Switzerland). The worms were quickly washed with 0.9% (w/v) NaCl and placed in 6 or 12-well plates (Costar). Culture medium in each well contained RPMI 1640 (Gibco) at 37° C., which was supplemented with antibiotics (50 μg/ml streptomycin and 50 IU/ml penicillin; Gibco) and 80 μg/ml of a haemin solution. The haemin solution was prepared as follows: 5 mg haemin was dissolved in 1 ml of 0.1M aqueous solution of NaOH, and 3.95 ml of PBS (pH=7.4) and 0.05 ml of 1M HCl were added to adjust the pH to 7.1-7.4 (Keiser and Morson, 2008). Cultures were kept at 37° C. in an atmosphere of 5% CO2. To monitor the temporal effects of test compounds in vitro, 3 flukes were incubated for 72 h in the presence of 50 or 100 μg/ml of each test compound. At 24, 48, and 72 h, worms were examined using a dissecting microscope. For the adult worms, a viability scale ranging from 3 (normal movements) to 0 (death; no movement observed for two min using a microscope) was used.
# Table 1 lists representative compounds of formula (I) of the present invention and their effective in vitro concentrations against F. hepatica. All compounds were tested in vitro on the adult stage of F. hepatica as described above. Each data point refers to at least two independent experiments having at least three worms per concentration.
row,SMILES,minimal effective concentration
1,"N#Cc1ccc(-c2cc3cc(C(F)(F)F)[nH]c3cc2Cl)c(Cl)c1 [Compound 355, 3-chloro-4-[6-chloro-2-(trifluoromethyl)-1H-indol-5-yl]benzonitrile]",> 2.5 µg/mL

# Same assay, conditions: Fasciola hepatica; adult stage of F. hepatica, incubated up to 72 h, viability scale 3 to 0; at least two independent experiments, at least three worms per concentration; read-out: Effective in vitro concentration
row,SMILES,minimal effective concentration
1,"FC(F)(F)c1ccc(-c2cc3cc(C(F)(F)F)[nH]c3cc2Cl)cc1 [Compound 345, 6-chloro-2-(trifluoromethyl)-5-[4-(trifluoromethyl)phenyl]-1H-indole]",< 10 µg/mL
2,"CN(C)Cc1ccccc1-c1cc2cc(C(F)(F)F)[nH]c2cc1Cl.Cl [Compound 360-0A, ([2-[6-Chloro-2-(trifluoromethyl)-1H-indol-5-yl]phenyl]methyl)dimethylamine hydrochloride]",> 2.5 µg/mL
3,"FC(F)(F)c1ccc(Oc2cc3cc(C(F)(F)F)[nH]c3cc2Cl)cc1 [Compound 352, 6-chloro-2-(trifluoromethyl)-5-[4-(trifluoromethyl)phenoxy]-1H-indole]",> 10 µg/mL
4,"Cl.FC(F)(F)c1cc2cc(Oc3ccncc3)c(Cl)cc2[nH]1 [Compound 362-0A, 6-chloro-5-(pyridin-4-yloxy)-2-(trifluoromethyl)-1H-indole hydrochloride]",> 2.5 µg/mL
5,"FC(F)(F)c1cc2cc(-c3ccc(Cl)cc3)c(Cl)cc2[nH]1 [Compound 343, 6-chloro-5-(4-chlorophenyl)-2-(trifluoromethyl)-1H-indole]",< 10 µg/mL
6,"CCc1cc2cc(-c3ccc(C(F)(F)F)cc3Cl)c(Cl)cc2[nH]1 [Compound 338, 6-chloro-5-[2-chloro-4-(trifluoromethyl)phenyl]-2-ethyl-1H-indole]",< 10 µg/mL
7,"CN(C)Cc1ccccc1-c1cc2cc(C(F)(F)F)[nH]c2cc1Cl [Compound 360, ([2-[6-Chloro-2-(trifluoromethyl)-1H-indol-5-yl]phenyl]methyl)dimethylamine]",> 2.5 µg/mL
8,"FC(F)(F)c1ccc(-c2cc3cc(C(F)(F)C(F)(F)C(F)(F)F)[nH]c3cc2Cl)c(Cl)c1 [Compound 341, 6-chloro-5-[2-chloro-4-(trifluoromethyl)phenyl]-2-(heptafluoropropyl)-1H-indole]",> 10 µg/mL
9,"FC(F)(F)c1ccc(-c2cc3cc(C(F)(F)F)[nH]c3cc2Cl)c(Cl)c1 [Compound 336, 6-chloro-5-[2-chloro-4-(trifluoromethyl)phenyl]-2-(trifluoromethyl)-1H-indole]",< 10 µg/mL
10,"O=C(O)c1ccccc1-c1cc2cc(C(F)(F)F)[nH]c2cc1Cl [Compound 358, 2-[6-Chloro-2-(trifluoromethyl)-1H-indol-5-yl]benzoic acid]",> 2.5 µg/mL
11,"FC(F)(F)c1cc2cc(-c3ccc(Cl)cc3Cl)c(Cl)cc2[nH]1 [Compound 357, 6-Chloro-5-(2,4-dichlorophenyl)-2-(trifluoromethyl)-1H-indole]",< 10 µg/mL
12,"N#Cc1ccccc1-c1cc2cc(C(F)(F)F)[nH]c2cc1Cl [Compound 359, 2-[6-Chloro-2-(trifluoromethyl)-1H-indol-5-yl]benzonitrile]",> 2.5 µg/mL
13,"FC(F)(F)c1ccc(-c2ccc3cc(C(F)(F)F)[nH]c3c2)c(Cl)c1 [Compound 334, 6-[2-chloro-4-(trifluoromethyl)phenyl]-2-(trifluoromethyl)-1H-indole]",< 10 µg/mL
14,"FC(F)(F)c1cc2cc(-c3ccc(Cl)c(Cl)c3)c(Cl)cc2[nH]1 [Compound 348, 6-chloro-5-(3,4-dichlorophenyl)-2-(trifluoromethyl)-1H-indole]",< 10 µg/mL
15,"Fc1ccc(-c2cc3cc(C(F)(F)F)[nH]c3cc2Cl)c(Cl)c1 [Compound 356, 6-chloro-5-(2-chloro-4-fluorophenyl)-2-(trifluoromethyl)-1H-indole]",< 10 µg/mL
16,"Cl.FC(F)(F)c1cc2cc(-c3ccncc3)c(Cl)cc2[nH]1 [Compound 354, 6-chloro-5-(pyridin-4-yl)-2-(trifluoromethyl)-1H-indole hydrochloride]",> 2.5 µg/mL
17,"FC(F)(F)c1cc2cc(Oc3ccccc3Cl)c(Cl)cc2[nH]1 [Compound 351, 6-chloro-5-(2-chlorophenoxy)-2-(trifluoromethyl)-1H-indole]",< 10 µg/mL
18,"FC(F)(F)c1cc2cc(Oc3ccc(Cl)cc3)c(Cl)cc2[nH]1 [Compound 350, 6-chloro-5-(4-chlorophenoxy)-2-(trifluoromethyl)-1H-indole]",≤ 10 µg/mL
19,"FC(F)(F)c1cc2cc(-c3ccc(Cl)cc3C(F)(F)F)c(Cl)cc2[nH]1 [Compound 342, 6-chloro-5-[4-chloro-2-(trifluoromethyl)phenyl]-2-(trifluoromethyl)-1H-indole]",< 10 µg/mL
20,"FC(F)(F)c1cc2cc(-c3ccncc3Cl)c(Cl)cc2[nH]1 [Compound 361, 6-chloro-5-(3-chloropyridin-4-yl)-2-(trifluoromethyl)-1H-indole]",< 10 µg/mL
21,"FC(F)(F)c1cc2cc(-c3cccc(Cl)c3)c(Cl)cc2[nH]1 [Compound 347, 6-chloro-5-(3-chlorophenyl)-2-(trifluoromethyl)-1H-indole]",≤ 10 µg/mL
22,"Cc1cc2cc(-c3ccc(C(F)(F)F)cc3Cl)c(Cl)cc2[nH]1 [Compound 337, 6-chloro-5-[2-chloro-4-(trifluoromethyl)phenyl]-2-methyl-1H-indole]",< 10 µg/mL
23,"FC(F)(F)c1ccc(-c2ccc3[nH]c(C(F)(F)F)cc3c2)c(Cl)c1 [Compound 332, 5-[2-chloro-4-(trifluoromethyl)phenyl]-2-(trifluoromethyl)-1H-indole]",< 10 µg/mL
24,"FC(F)(F)c1cc2cc(-c3ccccc3Cl)c(Cl)cc2[nH]1 [Compound 346, 6-chloro-5-(2-chlorophenyl)-2-(trifluoromethyl)-1H-indole]",< 10 µg/mL
25,"FC(F)(F)c1ccc(-c2cc3cc(C(F)(F)C(F)(F)F)[nH]c3cc2Cl)c(Cl)c1 [Compound 340, 6-chloro-5-[2-chloro-4-(trifluoromethyl)phenyl]-2-(pentafluoroethyl)-1H-indole]",< 10 µg/mL
26,"FC(F)(F)c1cc2cc(-c3ccncc3)c(Cl)cc2[nH]1 [Compound 349, 6-chloro-5-(pyridin-4-yl)-2-(trifluoromethyl)-1H-indole]",≤ 10 µg/mL
27,"Fc1ccc(-c2cc3cc(C(F)(F)F)[nH]c3cc2Cl)cc1 [Compound 344, 6-chloro-5-(4-fluorophenyl)-2-(trifluoromethyl)-1H-indole]",< 10 µg/mL
28,"CCCc1cc2cc(-c3ccc(C(F)(F)F)cc3Cl)c(Cl)cc2[nH]1 [Compound 339, 6-chloro-5-[2-chloro-4-(trifluoromethyl)phenyl]-2-propyl-1H-indole]",< 10 µg/mL
29,"Cl.FC(F)(F)c1cc2cc(-c3ccncc3Cl)c(Cl)cc2[nH]1 [Compound 361-0A, 6-chloro-5-(3-chloropyridin-4-yl)-2-(trifluoromethyl)-1H-indole hydrochloride]",< 10 µg/mL

# System: liver fluke newly-excysted juveniles (NEJs)
# Assay: fluke motility assay, digital image-based, newly-excysted juveniles (NEJs)
# Assay type: cell-based, Fasciola hepatica
# Conditions: 18 h, final concentrations 10 μM-1 nM
# Experimental: Further testing employed a fluke motility assay. Compounds 332, 336 and 351 were screened for activity against liver fluke newly-excysted juveniles (NEJs) in a digital image-based motility assay, based on measurement of the rate of change in worm length (μm/min) during peristaltic motility. Newly excised worms were immediately placed into a solution of drug in RPMI (final concentrations 10 μM-1 nM), alongside untreated and vehicle controls, and triclabendazole/triclabendazole sulfoxide (i.e., TCBZ/TCBZ-SO) at matching concentrations, for a period of 18 h. Each treatment group consisted of 15-20 NEJs. […] Each data point represents mean length change (μm/min) in an individual worm during a five minute recording period. Horizontal lines represent data set means. ****, p<0.0001; ***, p<0.001; **, p<0.01; *, p<0.05.
row,SMILES,inhibition of motility compared with TCBZ and TCBZ-SO
1,"FC(F)(F)c1ccc(-c2cc3cc(C(F)(F)F)[nH]c3cc2Cl)c(Cl)c1 [Compound 336, 6-chloro-5-[2-chloro-4-(trifluoromethyl)phenyl]-2-(trifluoromethyl)-1H-indole]",more potent inhibition of motility than either TCBZ
2,"FC(F)(F)c1cc2cc(Oc3ccccc3Cl)c(Cl)cc2[nH]1 [Compound 351, 6-chloro-5-(2-chlorophenoxy)-2-(trifluoromethyl)-1H-indole]",more potent inhibition of motility than either TCBZ
3,"FC(F)(F)c1ccc(-c2ccc3[nH]c(C(F)(F)F)cc3c2)c(Cl)c1 [Compound 332, 5-[2-chloro-4-(trifluoromethyl)phenyl]-2-(trifluoromethyl)-1H-indole]",more potent inhibition of motility than either TCBZ

# Same assay, conditions: 18 h, tested 10 μM-1 nM
row,SMILES,concentration effective on motility (effective only at)
1,"CSc1nc2cc(Cl)c(Oc3cccc(Cl)c3Cl)cc2[nH]1 [TCBZ, triclabendazole, reference compound]",10 µM
2,"C[S+]([O-])c1nc2cc(Oc3cccc(Cl)c3Cl)c(Cl)cc2[nH]1 (centres unmarked) [TCBZ-SO, triclabendazole sulfoxide, reference compound]",10 µM

# Same assay, conditions: 18 h in drug in RPMI, rate of change in worm length (μm/min)
SMILES,concentration that significantly impacted motility,concentration that completely abolished motility
"FC(F)(F)c1ccc(-c2cc3cc(C(F)(F)F)[nH]c3cc2Cl)c(Cl)c1 [Compound 336, 6-chloro-5-[2-chloro-4-(trifluoromethyl)phenyl]-2-(trifluoromethyl)-1H-indole]",100 nM,–
"FC(F)(F)c1cc2cc(Oc3ccccc3Cl)c(Cl)cc2[nH]1 [Compound 351, 6-chloro-5-(2-chlorophenoxy)-2-(trifluoromethyl)-1H-indole]",–,1 µM
"FC(F)(F)c1ccc(-c2ccc3[nH]c(C(F)(F)F)cc3c2)c(Cl)c1 [Compound 332, 5-[2-chloro-4-(trifluoromethyl)phenyl]-2-(trifluoromethyl)-1H-indole]",–,1 µM
